From US4874844A, “Tripeptide with immunostimulating activity” (Ellem Industria Farmaceutica S.p.A., priority 1986, dated 1989)
Peptide text beside a SMILES is read from it.

Columns and labels:
[1] = Pentobarbital-induced sleeping time; assay type: in vivo; settings: 100 mg/Kg
guinea-pig = settings: in vivo, 100 mg/kg
mice [2] = assay: Tolerability in mice; assay type: in vivo; settings: 100 mg/Kg i.p.
mice [3] = assay: Acute toxicity in mice; assay type: in vivo; settings: up to a dose of 1000 mg/Kg i.m.
rabbits = assay: Tolerability in rabbits; assay type: in vivo; settings: 100 mg/Kg i.v.
[4] = assay type: in vitro ADME
Excerpt: Resistance to the In Vitro Simulated Gastric Ambient The tripeptide is resistant to the in vitro simulated gastric ambient. In this study the gastric simulated juice USP XXI (HCl+pepsin) has been used at 37 C for 5 hrs.

rats = assay: Acute toxicity in rats; assay type: in vivo; settings: up to a dose of 1000 mg/Kg i.m.

SMILES: N=C(N)NCCC[C@H](N)C(=O)N[C@@H](CCCCN)C(=O)N[C@@H](CCC(=O)O)C(=O)O [ELS1, Arg-Lys-Glu] (H-Arg-Lys-Glu-OH)
- pentobarbital-induced sleeping time [1]: only a slight increase
- sensitization phenomena (guinea-pig): doesn't induce any sensitization phenomena
- tolerability: hemodynamic modification and behavioral effect (mice [2]): doesn't cause any hemodynamic modification and behavioral effect
- acute toxicity (mice [3]): totally devoid of toxic effects
- tolerability: hemodynamic modification and behavioral effect (rabbits): doesn't cause any hemodynamic modification and behavioral effect
- resistance to the in vitro simulated gastric ambient [4]: resistant
- acute toxicity (rats): totally devoid of toxic effects
